According to US20260069588A1, “VEPDEGESTRANT FOR USE IN TREATING CANCER” (Arvinas Operation, Inc., priority 2022, published 2026):

Tests used:
[1] = Interconversion (epimerization) Compound A/Compound B in animals; format: in vivo, mouse, rat, dog, and monkey; settings: monkey
clinical = settings: human, in vivo; for AUC: AUCtau
Method: (§2) Study Design: In the FIH Study: Part A is a Phase I monotherapy dose escalation, and Part B is a Phase 2 monotherapy expansion at 2 RP2D doses (200 mg QD, 500 mg QD).

Ikaros = Ikaros (Homo sapiens, UniProt Q13422); assay: Cereblon neomorphic substrate degradation, Ikaros; format: cell-based; settings: in vitro
Excerpt: These drugs bind to cereblon and promote the degradation of novel (neomorphic) substrates.

[2] = GLP cardiovascular telemetry study in beagle dogs with TK phase; format: in vivo, dog
Method: (§1) A lead-in single-dose TK and tolerability study conducted prior to the telemetry study indicated approximately dose-proportional increase in exposure between 200 and 400 mg/kg in the dog.

[3] = FIH Study Part B dose expansion (VERITAC): adverse events
Method: as §2
TEAEs and TRAEs from the clinical study database were coded to system organ class and preferred term using MedDRA version 22.0 and SAEs from the centralized safety database were coded using MedDRA version 25.0. The severity of adverse events was graded according to the NCI CTCAE version 5.0.

[4] = Preclinical PK after PO or intravenous dose; design: species or system mouse, dog, and monkey; settings: rat, in vivo
[5] = Plasma protein binding, rat; format: in vitro ADME; settings: read-out: free fraction
[6] = female, human, in vivo
Excerpt: The severity of adverse events was graded according to the National Cancer Institute Common Terminology Criteria for Adverse Events (NCI CTCAE) version 5.0.

P-gp = P-gp (Homo sapiens, UniProt P08183); assay: Efflux transporter substrate assessment (inside-out vesicular assay), P-gp; format: in vitro ADME
P-gp, sequence (P08183 whole entry): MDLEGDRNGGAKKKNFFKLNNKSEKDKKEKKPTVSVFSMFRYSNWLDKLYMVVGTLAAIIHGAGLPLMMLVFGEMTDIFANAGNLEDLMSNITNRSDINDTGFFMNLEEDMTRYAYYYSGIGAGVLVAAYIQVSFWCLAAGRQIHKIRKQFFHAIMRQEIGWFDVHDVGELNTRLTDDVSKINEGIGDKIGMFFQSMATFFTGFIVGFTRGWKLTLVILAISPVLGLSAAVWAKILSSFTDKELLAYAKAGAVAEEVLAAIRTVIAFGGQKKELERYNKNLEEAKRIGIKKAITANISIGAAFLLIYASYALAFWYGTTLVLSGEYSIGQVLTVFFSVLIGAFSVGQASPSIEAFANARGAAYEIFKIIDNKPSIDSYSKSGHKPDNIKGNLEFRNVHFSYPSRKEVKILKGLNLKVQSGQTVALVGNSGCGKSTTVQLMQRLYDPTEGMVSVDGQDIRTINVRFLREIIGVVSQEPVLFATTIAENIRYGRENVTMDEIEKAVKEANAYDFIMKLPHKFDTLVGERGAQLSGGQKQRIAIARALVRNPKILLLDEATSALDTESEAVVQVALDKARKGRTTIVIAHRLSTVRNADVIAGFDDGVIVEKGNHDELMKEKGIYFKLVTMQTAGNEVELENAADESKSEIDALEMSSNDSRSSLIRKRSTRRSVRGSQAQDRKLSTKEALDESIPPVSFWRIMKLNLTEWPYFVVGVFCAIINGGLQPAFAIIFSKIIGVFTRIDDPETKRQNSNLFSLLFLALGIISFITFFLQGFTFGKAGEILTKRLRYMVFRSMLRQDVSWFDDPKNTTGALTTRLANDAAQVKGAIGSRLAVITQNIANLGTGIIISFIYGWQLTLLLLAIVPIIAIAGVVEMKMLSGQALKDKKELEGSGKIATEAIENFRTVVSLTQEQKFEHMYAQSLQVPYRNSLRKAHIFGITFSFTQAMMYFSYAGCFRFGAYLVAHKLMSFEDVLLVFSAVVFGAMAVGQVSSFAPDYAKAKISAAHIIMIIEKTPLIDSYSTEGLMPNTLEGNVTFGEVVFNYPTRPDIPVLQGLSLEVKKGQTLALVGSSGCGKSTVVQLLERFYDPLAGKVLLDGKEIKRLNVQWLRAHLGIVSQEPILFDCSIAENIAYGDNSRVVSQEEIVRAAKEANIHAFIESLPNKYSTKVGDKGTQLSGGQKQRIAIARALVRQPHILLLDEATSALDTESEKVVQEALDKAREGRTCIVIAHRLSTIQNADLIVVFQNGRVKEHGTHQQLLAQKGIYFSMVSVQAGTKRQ

[7] = system: ER+/HER2− locally advanced/metastatic breast cancer; assay: FIH Study Part B (VERITAC): clinical benefit rate, PFS; format: in vivo, human
Excerpt: The primary endpoint was clinical benefit rate (CBR; rate of confirmed complete or partial response or stable disease ≥24 weeks).

[8] = Single-dose oral TK and tolerability study in beagle dogs; format: in vivo; settings: dog
Method: as §1

AR = AR (Homo sapiens, UniProt P10275); assay: Secondary pharmacodynamics binding, AR; settings: in vitro
AR, sequence (P10275 whole entry): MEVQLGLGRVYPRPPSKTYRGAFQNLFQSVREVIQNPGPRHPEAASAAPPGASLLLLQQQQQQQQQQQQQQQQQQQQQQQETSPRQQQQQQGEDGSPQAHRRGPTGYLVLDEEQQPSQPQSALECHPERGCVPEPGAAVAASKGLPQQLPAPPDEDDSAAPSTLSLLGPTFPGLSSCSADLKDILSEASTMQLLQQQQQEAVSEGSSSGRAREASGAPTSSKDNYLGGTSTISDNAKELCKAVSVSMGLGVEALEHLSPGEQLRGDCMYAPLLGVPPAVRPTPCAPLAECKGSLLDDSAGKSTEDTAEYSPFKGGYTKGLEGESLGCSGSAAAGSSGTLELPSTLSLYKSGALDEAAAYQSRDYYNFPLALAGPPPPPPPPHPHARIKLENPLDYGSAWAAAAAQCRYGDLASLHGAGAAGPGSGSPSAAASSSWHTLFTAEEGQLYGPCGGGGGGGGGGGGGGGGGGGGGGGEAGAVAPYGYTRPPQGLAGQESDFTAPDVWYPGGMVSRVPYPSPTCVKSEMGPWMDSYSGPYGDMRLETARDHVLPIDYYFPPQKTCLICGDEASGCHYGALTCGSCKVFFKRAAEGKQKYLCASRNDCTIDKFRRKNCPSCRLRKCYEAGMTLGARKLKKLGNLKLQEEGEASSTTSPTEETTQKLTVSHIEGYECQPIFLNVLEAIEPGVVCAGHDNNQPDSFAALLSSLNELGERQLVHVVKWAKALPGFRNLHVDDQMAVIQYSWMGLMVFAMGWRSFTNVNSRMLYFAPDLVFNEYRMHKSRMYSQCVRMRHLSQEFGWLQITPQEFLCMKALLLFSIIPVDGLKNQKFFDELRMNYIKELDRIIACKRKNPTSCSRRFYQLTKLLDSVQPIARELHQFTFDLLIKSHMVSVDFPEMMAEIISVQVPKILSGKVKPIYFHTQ

[9] = Tablet performance in fed and fasted dogs; format: in vivo, dog; settings: 50 mg tablet QD, fed vs fasted
Method: For 6 days, dogs received a single 50 mg tablet QD after pre-treatment with pentagastrin. Little accumulation was observed over the course of the study. In addition, exposure in chow-fed dogs was similar to that obtained for solution formulations administered at a similar dose. To reduce the pill burden, a 100 mg tablet was developed and when tested in dogs, similar exposure was observed when dogs were dosing with a 50 mg tablet.

[10] = both sexes, beagle, plasma, dog n=8, 400 mg/kg single oral, TK phase
[11] = 200 mg QD n=35, Nov. 1, 2022, grade 1/2

Ikaros, sequence (Q96SW2 whole entry partner, species assumed): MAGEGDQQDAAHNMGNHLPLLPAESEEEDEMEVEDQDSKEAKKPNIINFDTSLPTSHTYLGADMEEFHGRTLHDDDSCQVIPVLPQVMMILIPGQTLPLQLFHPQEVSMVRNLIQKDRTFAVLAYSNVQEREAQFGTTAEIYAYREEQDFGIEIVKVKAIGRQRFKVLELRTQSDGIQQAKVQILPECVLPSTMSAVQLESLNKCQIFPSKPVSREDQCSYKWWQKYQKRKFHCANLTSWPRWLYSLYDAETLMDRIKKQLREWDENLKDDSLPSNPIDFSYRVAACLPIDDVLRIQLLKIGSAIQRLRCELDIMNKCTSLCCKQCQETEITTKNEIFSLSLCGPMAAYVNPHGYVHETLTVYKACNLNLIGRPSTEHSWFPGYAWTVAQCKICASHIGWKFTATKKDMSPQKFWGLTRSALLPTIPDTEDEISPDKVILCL
Ikaros, sequence (Q16531 whole entry partner, species assumed): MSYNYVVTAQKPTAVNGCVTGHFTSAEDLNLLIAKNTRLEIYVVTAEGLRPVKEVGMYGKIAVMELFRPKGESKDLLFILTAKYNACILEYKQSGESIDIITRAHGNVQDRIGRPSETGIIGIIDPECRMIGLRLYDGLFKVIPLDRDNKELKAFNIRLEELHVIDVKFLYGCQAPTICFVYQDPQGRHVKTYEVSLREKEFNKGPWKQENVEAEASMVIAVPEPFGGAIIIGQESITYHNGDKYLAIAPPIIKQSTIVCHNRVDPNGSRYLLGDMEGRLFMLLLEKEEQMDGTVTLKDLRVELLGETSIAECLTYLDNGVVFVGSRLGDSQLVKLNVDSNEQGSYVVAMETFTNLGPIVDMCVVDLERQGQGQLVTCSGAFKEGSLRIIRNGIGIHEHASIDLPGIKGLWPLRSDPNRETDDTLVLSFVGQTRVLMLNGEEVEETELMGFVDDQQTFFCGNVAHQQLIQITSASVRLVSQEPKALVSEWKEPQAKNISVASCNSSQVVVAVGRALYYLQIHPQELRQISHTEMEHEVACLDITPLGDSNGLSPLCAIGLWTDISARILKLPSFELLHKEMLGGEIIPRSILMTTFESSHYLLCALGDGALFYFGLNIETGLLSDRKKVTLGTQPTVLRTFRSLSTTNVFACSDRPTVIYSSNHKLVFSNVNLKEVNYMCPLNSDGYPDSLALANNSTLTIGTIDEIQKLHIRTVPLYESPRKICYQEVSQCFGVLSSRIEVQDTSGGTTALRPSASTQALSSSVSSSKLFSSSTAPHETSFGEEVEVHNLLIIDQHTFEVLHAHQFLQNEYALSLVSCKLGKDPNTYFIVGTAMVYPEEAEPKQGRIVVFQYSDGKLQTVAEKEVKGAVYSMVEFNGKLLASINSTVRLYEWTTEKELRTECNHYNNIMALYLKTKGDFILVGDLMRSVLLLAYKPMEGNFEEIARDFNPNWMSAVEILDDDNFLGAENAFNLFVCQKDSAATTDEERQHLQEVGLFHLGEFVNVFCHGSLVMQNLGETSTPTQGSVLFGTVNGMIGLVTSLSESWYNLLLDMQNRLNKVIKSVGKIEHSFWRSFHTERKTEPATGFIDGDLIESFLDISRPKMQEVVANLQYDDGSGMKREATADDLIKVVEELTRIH
Ikaros, sequence (Q13422 whole entry, species assumed): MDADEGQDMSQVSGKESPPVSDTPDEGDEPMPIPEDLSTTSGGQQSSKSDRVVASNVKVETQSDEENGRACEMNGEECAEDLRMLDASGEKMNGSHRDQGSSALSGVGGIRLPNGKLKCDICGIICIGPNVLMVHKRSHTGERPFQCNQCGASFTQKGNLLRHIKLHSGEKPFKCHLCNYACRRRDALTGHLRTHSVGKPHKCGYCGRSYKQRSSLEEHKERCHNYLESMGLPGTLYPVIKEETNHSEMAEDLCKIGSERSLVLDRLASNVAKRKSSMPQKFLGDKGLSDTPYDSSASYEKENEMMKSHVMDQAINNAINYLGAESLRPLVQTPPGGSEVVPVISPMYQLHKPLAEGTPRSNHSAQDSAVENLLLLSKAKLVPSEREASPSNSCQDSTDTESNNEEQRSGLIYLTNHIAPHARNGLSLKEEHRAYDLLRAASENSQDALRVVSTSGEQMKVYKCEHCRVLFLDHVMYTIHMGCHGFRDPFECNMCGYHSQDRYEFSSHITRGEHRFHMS

For O=C1CC[C@H](N2Cc3cc(N4CCN(CC5CCN(c6ccc([C@@H]7c8ccc(O)cc8CC[C@@H]7c7ccccc7)cc6)CC5)CC4)ccc3C2=O)C(=O)N1 [Compound A, (S)-3-(5-(4-((1-(4-((1R,2S)-6-hydroxy-2-phenyl-1,2,3,4-tetrahydronaphthalen-1-yl)phenyl)piperidin-4-yl)methyl)piperazin-1-yl)-1-oxoisoindolin-2-yl)piperidine-2,6-dione], the extent of epimerization [1] was “negligible”, the half-life (clinical; 30 mg) was 31 h and the Tmax (clinical; 30 mg, Tmax) was 4 h. It also gave a half-life (clinical; 60 mg) of 33 h, a Tmax (clinical; 60 mg, Tmax) of 6 h and a half-life (clinical; 100 mg) of 29 h. The Tmax (clinical; 100 mg, Tmax) was 5.8 h, the half-life (clinical; 120 mg) was 27 h and the Cmax (clinical; 120 mg) was 404 ng/mL. The Tmax (clinical; 120 mg, Tmax) was 5.9 h, the half-life (clinical; 180 mg) was 26 h and the Cmax (clinical; 180 mg) was 555 ng/mL. For the same compound, the Tmax (clinical; 180 mg, Tmax) was 6 h, the half-life (clinical; 200 mg) was 23 h and the AUC (clinical; 200 mg) was 9110 ng·h/mL. The Cmax (clinical; 200 mg) was 534 ng/mL, the Tmax (clinical; 200 mg, Tmax) was 5.8 h and the AUC(0-t) (clinical; 250 mg, AUCtau (AUC0-8)) was 2920 ng·h/mL. The AUC(0-t) (clinical; 250 mg, AUCtau (AUC0-12)) was 20600 ng·h/mL, the Tmax (clinical; 250 mg, Tmax) was 6.9 h and the half-life (clinical; 360 mg) was 28 h. The Tmax (clinical; 360 mg, Tmax) was 5.8 h, the half-life (clinical; 500 mg) was 28 h and the Cmax (clinical; 500 mg) was 1050 ng/mL. It also gave a Tmax (clinical; 500 mg, Tmax) of 4.9 h, a half-life (clinical; 700 mg) of 12.4 h and an AUC (clinical; 700 mg) of 19600 ng·h/mL. It also gave a Cmax (clinical; 700 mg) of 1450 ng/mL, a Tmax (clinical; 700 mg, Tmax) of 5.8 h and a Tmax (clinical; Tmax) of 4.1 h. For the same compound, the Tmax (clinical; median Tmax across dose levels) was 4 to 7 h, the “degradation of Ikaros” value (Ikaros) was “did not degrade” and the Cmax [2, 10] was 16000 ng/mL. The Tmax [2, 10] was 5.1 h, the AUC(0-t) ([2]; both sexes, beagle, plasma, dog n=8, 400 mg/kg single oral, TK phase, read-out: mean AUC0-24) was 272000 ng·h/mL and the “QT- or QTc-interval” value ([2]; dog, 400 mg/kg) was “no changes in QT- or QTc-interval”. The “shortening of the PR interval” value ([2]; dog, 400 mg/kg, 1 to 3.25 hours postdose) was 7 ms, the cardiovascular effects ([2]; dog, single oral 90 and 200 mg/kg) was “No Compound A-related effects were noted” and the TRAE Arthralgia [3, 11] was 11%. The TRAE Fatigue [3, 11] was 40%, the TRAE Nausea [3, 11] was 14% and the TRAE hot flush [3, 11] was 17%. The “TRAE increased aspartate aminotransferase” value [3, 11] was 11%, the “Grade 5 TRAEs” value ([3]; 6 Jun 2023) was “no Grade 5 TRAEs” and the “Grade 1 TEAEs” value ([3]; 6 Jun 2023, N=71) was 22.5%. For the same compound, the “Grade 1 TRAEs” value ([3]; 6 Jun 2023, N=71) was 29.6%, the “Grade 2 TEAEs” value ([3]; 6 Jun 2023, N=71) was 33.8% and the “Grade 2 TRAEs” value ([3]; 6 Jun 2023, N=71) was 38.0%. For the same compound, the “Grade 3 TEAEs” value ([3]; 6 Jun 2023, N=71) was 28.2%, the “Grade 3 TRAE electrocardiogram QT prolonged” value ([3]; 6 Jun 2023, N=71) was 1.4% and the “Grade 4 TEAEs” value ([3]; 6 Jun 2023, N=71) was 2.8%. For the same compound, the “Grade 5 TEAE” value ([3]; 6 Jun 2023, N=71) was 1.4%, the TEAE Arthralgia ([3]; 6 Jun 2023, N=71) was 21.1% and the “TEAE Aspartate aminotransferase increased” value ([3]; 6 Jun 2023, N=71) was 12.7%. It also gave a TEAE Back pain ([3]; 6 Jun 2023, N=71) of 11.3%, a TEAE Constipation ([3]; 6 Jun 2023, N=71) of 19.7% and a TEAE Decreased appetite ([3]; 6 Jun 2023, N=71) of 15.5%. It also gave a TEAE Headache ([3]; 6 Jun 2023, N=71) of 11.3%, a TEAE Nausea ([3]; 6 Jun 2023, N=71) of 26.8% and a TEAE anemia ([3]; 6 Jun 2023, N=71) of 14.1%. The TEAE hot flush ([3]; 6 Jun 2023, N=71) was 14.1%, the TRAE Arthralgia ([3]; 6 Jun 2023, N=71) was 14.1% and the TRAE Fatigue ([3]; 6 Jun 2023, N=71) was 36.6%. The TRAE Nausea ([3]; 6 Jun 2023, N=71) was 21.1%, the TRAE hot flush ([3]; 6 Jun 2023, N=71) was 12.7% and the “patients with TRAEs of Grade ≥3” value ([3]; 6 Jun 2023, N=71) was 7.0%. The “patients with at least 1 TEAE” value ([3]; 6 Jun 2023, N=71) was 88.7%, the “patients with at least 1 TRAE” value ([3]; 6 Jun 2023, N=71) was 76.1% and the SAEs ([3]; 6 Jun 2023, N=71, 10) was 14.1%. The deaths ([3]; 14 of 71 participants) was 19.7%, the “SAE Seizure, Grade” value ([3]; Patient 1, onset day 263, Not related) was 3 and the “SAE Intestinal obstruction, Grade” value ([3]; Patient 2, onset day 85, Not related) was 3. For the same compound, the “SAE Muscular weakness, Grade” value ([3]; Patient 3, onset day 165, Not related) was 3, the “SAE Back pain, Grade” value ([3]; Patient 3, onset day 196) was 2 and the “SAE Hepatic hemorrhage, Grade” value ([3]; Patient 4, onset day 55, Not related) was 4. For the same compound, the “SAE Hypercalcemia, Grade” value ([3]; Patient 5, onset day 53, Not related) was 4, the “SAE Anemia, Grade” value ([3]; Patient 6, Not related) was 3 and the “SAE Cholangitis, Grade” value ([3]; Patient 6, Not related) was 3. The “SAE Thrombocytopenia, Grade” value ([3]; Patient 6, Possibly related, SUSAR) was 3, the “SAE Hyperbilirubinemia, Grade” value ([3]; Patient 6, onset day 15, Possibly related, SUSAR) was 4 and the “SAE Acute respiratory failure, Grade” value ([3]; Patient 6, onset day 19, Unlikely related) was 5. The “SAE Upper gastrointestinal hemorrhage, Grade” value ([3]; Patient 7, onset day 36, Not related) was 3, the “SAE Spinal cord compression, Grade” value ([3]; Patient 8, onset day 22, Not related) was 3 and the “SAE Pyrexia, Grade” value ([3]; Patient 9, onset day 27, Not related) was 3. The “Grade 5 TRAEs” value ([3]; cut-off 6 Jun 2022) was “no Grade 5 TRAEs”, the “patients reporting SAEs” value ([3]; cut-off 6 Jun 2022) was 9 of 71 patients and the “total SAEs” value ([3]; cut-off 6 Jun 2022) was 14 SAEs. The “Grade 1 TEAEs” value ([3]; cut-off 6 Jun 2022, N=71) was 29.6%, the “Grade 1 TRAEs” value ([3]; cut-off 6 Jun 2022, N=71) was 33.8% and the “Grade 2 TEAEs” value ([3]; cut-off 6 Jun 2022, N=71) was 35.2%. The “Grade 2 TRAEs” value ([3]; cut-off 6 Jun 2022, N=71) was 31.0%, the “Grade 3 TEAE of anemia” value ([3]; cut-off 6 Jun 2022, N=71) was 2 patients and the “Grade 3 TEAEs” value ([3]; cut-off 6 Jun 2022, N=71) was 18.3%. For the same compound, the “Grade 4 TEAEs” value ([3]; cut-off 6 Jun 2022, N=71) was 2.8%, the “Grade 4 TRAE of hyperbilirubinemia” value ([3]; cut-off 6 Jun 2022, N=71) was 1 and the “Grade 5 TEAE” value ([3]; cut-off 6 Jun 2022, N=71) was 1.4%. For the same compound, the “TEAEs of Grade ≥3” value ([3]; cut-off 6 Jun 2022, N=71) was 22.5%, the “patients with TRAEs of Grade ≥3” value ([3]; cut-off 6 Jun 2022, N=71) was 7.0% and the “patients with at least 1 TEAE” value ([3]; cut-off 6 Jun 2022, N=71) was 87.3%. The “patients with at least 1 TRAE” value ([3]; cut-off 6 Jun 2022, N=71) was 71.8%, the “TEAE leading to discontinuation” value ([3]; four of 71 patients) was 5.6% and the bioavailability ([4]; mouse, dog, monkey, po, range across species) was 27 to 65%. For the same compound, the half-life ([4]; mouse, dog, monkey, range across species) was 2.1 to 8.2 h, the Vd ([4]; intravenous, read-out: VSS) was 6 L/kg and the fraction unbound at 1 μM [5] was 0.082. For the same compound, the “TEAE COVID-19” value [6] was 11.8%, the “substrate of P-gp” value (P-gp) was “unlikely to be a substrate” and the CBR ([7]; 200 mg QD, WT PIK3CA n=20, 95% CI 19-64) was 40.0%. For the same compound, the CBR ([7]; 200 mg QD, all evaluable n=35, Nov. 1, 2022, 95% CI 21-55) was 37.1%, the CBR ([7]; 200 mg QD, mutant ESR1 n=19, Nov. 1, 2022, 95% CI 24-71) was 47.4% and the CBR ([7]; 200 mg QD, mutant PIK3CA n=15, 95% CI 12-62) was 33.3%. The CBR ([7]; ITT (n=71)) was 38%, the CBR ([7]; ITT ESR1m (n=41)) was 51.2% and the PFS ([7]; ITT ESR1m (n=41)) was 5.7 months. The CBR ([7]; no prior fulvestrant or chemotherapy in metastatic setting (n=8)) was 62.5%, the CBR ([7]; patients with WT ESR1 (n=25)) was 20% and the Cmax ([8]; both sexes, beagle, in vivo, 400 mg/kg single oral, sexes combined) was 25000 ng/mL. For the same compound, the AUC ([8]; both sexes, beagle, in vivo, 400 mg/kg single oral, sexes combined, read-out: mean AUC24) was 349000 ng·h/mL, the tolerability ([8]; 200 or 400 mg/kg single oral, fecal changes, emesis at 400) was “tolerated” and the binding (AR) was “bound”. For the same compound, the “increase in AUC in fed dogs” value [9] was 3 fold.
